According to paper PMC4706797 (Journal of pharmaceutical sciences, 2015):

Key:
cyclin D1 = assay: Western blot, cyclin D1 expression in MDA-MB-231 cells; assay type: cell-based; details: MDA-MB-231, DTX 0.1 μM and/or 1 μM PPL, 48 hr, densitometry
Bcl-2 = assay: Western blot, Bcl-2 expression in MDA-MB-231 cells; assay type: cell-based; details: MDA-MB-231, DTX 0.1 μM and/or 1 μM PPL, 48 hr, densitometry
[1] = In vivo pharmacokinetic in rats; parameters: species or system Sprague Dawley rats
HCC70 = assay: Cytotoxicity assay; assay type: cell-based; details: Homo sapiens, HCC70, 48 h, read-out: IC50 (μM) DTX only
HCC1806 = assay: Cytotoxicity assay; assay type: cell-based; details: Homo sapiens, HCC1806, 48 h, read-out: IC50 (μM) DTX only
MDA-MB-231 cells = assay: In vitro migration; assay type: cell-based
HS578T = assay: Cytotoxicity assay; assay type: cell-based; details: Homo sapiens, Hs-578T, 48 h, read-out: IC50 (μM) DTX only
MDA-MB-468 = assay: Cytotoxicity assay; assay type: cell-based; details: Homo sapiens, MDA-MB-468, 48 h, read-out: IC50 (μM) DTX only
p53 = assay: Western blot, p53 expression in MDA-MB-231 cells; assay type: cell-based; details: MDA-MB-231, DTX 0.1 μM and/or 1 μM PPL, 48 hr, densitometry
survivin = assay: Western blot, survivin expression in MDA-MB-231 cells; assay type: cell-based; details: MDA-MB-231, DTX 0.1 μM and/or 1 μM PPL, 48 hr, densitometry
MDA-MB-231 = assay: Cytotoxicity assay; assay type: cell-based; details: Homo sapiens, MDA-MB-231, 48 h, read-out: IC50 (μM) DTX only
[2] = tested on: triple negative breast cancer (TNBC) cell lines; assay: Cytotoxicity in TNBC cell lines; assay type: cell-based
P-gp = P-gp (Homo sapiens, UniProt P08183); assay: Caco-2 uptake study of P-gp substrates; details: Caco-2 cells, 50 μM PPL or verapamil
CYP3A4 = details: 50 μM PPL or CYA, 5 μM TST, human liver microsomes, over 60 min
[3] = oral co-administration with the taxane; cited from earlier work
[4] = Sprague Dawley, rat, plasma, iv, 5 mg/kg

Sequence of P-gp (P08183 whole entry): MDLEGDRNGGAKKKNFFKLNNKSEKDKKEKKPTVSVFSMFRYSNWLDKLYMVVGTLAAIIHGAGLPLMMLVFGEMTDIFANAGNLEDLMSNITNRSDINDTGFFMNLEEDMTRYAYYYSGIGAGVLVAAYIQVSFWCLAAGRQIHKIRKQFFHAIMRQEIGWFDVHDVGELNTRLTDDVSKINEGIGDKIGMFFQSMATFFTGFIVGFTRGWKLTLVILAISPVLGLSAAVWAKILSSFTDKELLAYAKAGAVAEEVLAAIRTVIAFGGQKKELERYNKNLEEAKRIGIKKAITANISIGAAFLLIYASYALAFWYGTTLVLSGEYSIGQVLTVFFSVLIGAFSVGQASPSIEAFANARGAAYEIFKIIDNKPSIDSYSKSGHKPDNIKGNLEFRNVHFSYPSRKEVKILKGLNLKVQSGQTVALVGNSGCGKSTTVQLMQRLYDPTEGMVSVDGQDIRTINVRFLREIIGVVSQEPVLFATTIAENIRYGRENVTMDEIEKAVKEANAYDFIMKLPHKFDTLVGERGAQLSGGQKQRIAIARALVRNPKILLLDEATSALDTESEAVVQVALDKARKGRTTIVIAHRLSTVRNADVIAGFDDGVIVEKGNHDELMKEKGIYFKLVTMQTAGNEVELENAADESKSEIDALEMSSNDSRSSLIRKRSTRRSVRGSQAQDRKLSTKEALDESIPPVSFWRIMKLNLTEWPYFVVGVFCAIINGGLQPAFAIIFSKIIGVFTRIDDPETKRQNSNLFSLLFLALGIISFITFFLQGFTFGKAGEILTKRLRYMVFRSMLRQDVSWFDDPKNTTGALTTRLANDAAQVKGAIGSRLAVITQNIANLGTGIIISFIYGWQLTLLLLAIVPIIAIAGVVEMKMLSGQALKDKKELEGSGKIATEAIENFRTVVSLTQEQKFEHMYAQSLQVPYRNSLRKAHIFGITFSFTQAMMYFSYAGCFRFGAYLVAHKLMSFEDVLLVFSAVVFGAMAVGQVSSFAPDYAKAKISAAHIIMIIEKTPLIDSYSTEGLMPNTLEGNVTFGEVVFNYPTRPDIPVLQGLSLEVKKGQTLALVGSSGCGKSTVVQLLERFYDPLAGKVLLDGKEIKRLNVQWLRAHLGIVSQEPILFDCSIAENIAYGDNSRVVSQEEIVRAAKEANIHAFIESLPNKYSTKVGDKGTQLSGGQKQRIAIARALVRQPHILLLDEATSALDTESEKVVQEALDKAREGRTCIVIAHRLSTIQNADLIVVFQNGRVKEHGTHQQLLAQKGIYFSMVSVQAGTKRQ

**Q.** Which “cyclin D1 relative expression reduced compared to untreated control” value (cyclin D1) does the source give for `CC(=O)O[C@@]12CO[C@@H]1C[C@H](O)[C@@]1(C)C(=O)[C@H](O)C3=C(C)[C@@H](OC(=O)[C@H](O)[C@@H](NC(=O)OC(C)(C)C)c4ccccc4)C[C@@](O)([C@@H](OC(=O)c4ccccc4)[C@H]21)C3(C)C` [DTX, Docetaxel] here?
**A.** 0.8 fold

**Q.** What about the “Bcl-2 expression reduced compared to untreated control” value (Bcl-2) of the same compound?
**A.** 2.59 fold

**Q.** And the “Absolute BA” value ([1]; SD rats, oral DTX 10 mg/kg (PPL 50 mg/kg where co-administered) vs IV 5 mg/kg)?
**A.** 9.26%

**Q.** What about the “time after which DTX plasma concentration was non-detectable” value ([1]; SD rats, oral administration) of the same compound?
**A.** 8 h

**Q.** And the AUC [1, 4]?
**A.** 5290 ± 1100 ng·h/mL

**Q.** And the Cmax [1, 4]?
**A.** 6100 ± 1700 ng/mL

**Q.** What about the MRT [1, 4] of the same compound?
**A.** 1.99 ± 0.36 h

**Q.** And the half-life [1, 4]?
**A.** 6.67 ± 1.6 h

**Q.** And the IC50 (HCC70)?
**A.** 0.019 ± 0.008 µM

**Q.** What about the IC50 (HCC1806) of the same compound?
**A.** 0.0022 ± 0.001 µM

**Q.** What about the “percent bridging of scratch area” value (MDA-MB-231 cells; MDA-MB-231, 48 h, 0.1 μM DTX (combination with 1 μM PPL)) of the same compound?
**A.** 49.3%

**Q.** What about the “percent bridging of scratch area” value (MDA-MB-231 cells; MDA-MB-231, 48 h, 0.4 μM DTX (combination with 1 μM PPL)) of the same compound?
**A.** 33.8%

**Q.** And the IC50 (HS578T)?
**A.** 0.077 ± 0.013 µM

**Q.** What about the IC50 (MDA-MB-468) of the same compound?
**A.** 0.36 ± 0.069 µM

**Q.** What about the “increase in expression of p53 compared to untreated control” value (p53) of the same compound?
**A.** 1.2 fold

**Q.** What about the “survivin expression down regulated compared to control” value (survivin) of the same compound?
**A.** 1.03 fold

**Q.** What about the IC50 (MDA-MB-231) of the same compound?
**A.** 0.458 ± 0.081 µM

**Q.** Which “anticancer and synergistic effect with docetaxel” value ([2]; in vitro studies, data not shown) does the source give for `O=C(/C=C/C=C/c1ccc2c(c1)OCO2)N1CCCCC1` [piperine] here?
**A.** did not show potent anticancer and synergistic effect

**Q.** Which results are given for `COc1cc(/C=C/C(=O)N2CCC=CC2=O)cc(OC)c1OC` [PPL, Piperlongumine]?
**A.** intracellular uptake of R123 (green fluorescence intensity) (P-gp; 1 μM rhodamine 123, 90 min, qualitative): green fluorescence intensity was higher; higher intracellular accumulation (uptake) of DTX (P-gp; 5 μM DTX, 90 min): 1.34 fold; reduction in TST metabolism (CYP3A4): ~50%; cyclin D1 relative expression reduced compared to untreated control (cyclin D1): 2.10 fold; Bcl-2 expression reduced compared to untreated control (Bcl-2): 2.74 fold; percent bridging of migration area (MDA-MB-231 cells; MDA-MB-231, 48 h, 1 μM PPL alone): comparable to control; anti-migration effect (MDA-MB-231 cells; PPL at concentration below 4 μM): no anti-migration effect; increase in expression of p53 compared to untreated control (p53): 1.1 fold; survivin expression down regulated compared to control (survivin): 1.19 fold; cytotoxicity ([2]; PPL at 1 μM): no cytotoxcity; cell killing ([2]; PPL below 4 μM): not shown a significant cell killing

**Q.** Which results are given for `CC(C)c1nc(CN(C)C(=O)N[C@H](C(=O)N[C@@H](Cc2ccccc2)C[C@H](O)[C@H](Cc2ccccc2)NC(=O)OCc2cncs2)C(C)C)cs1` [ritonavir]?
**A.** increase in plasma concentrations of docetaxel [3]: 7.3 fold; increase in plasma concentrations of paclitaxel [3]: 2.5 fold
